Reference: PMC6522976, “Novel sulphonamide benzoquinazolinones as dual EGFR/HER2 inhibitors, apoptosis inducers and radiosensitizers” (Journal of Enzyme Inhibition and Medicinal Chemistry, 2019)
Several values for one entry are separate records, joined by “and”; a condition that tells them apart may be missing. Equal entries are not always repeated. Where two headings read alike, the source gives them in different places.

Tests used:
[1] = tested on: MDA-MB-231 breast cancer cells; assay: MTT cytotoxicity assay against MDA-MB-231; type: cell-based; conditions: Homo sapiens, mean ± SE of three independent experiments
Method: Cells were cultured using Dulbecco’s Modified Eagle’s Medium (Invitrogen/Life Technologies) supplemented with 10% FBS (Hyclone), 10 µg/mL of insulin, and 1% penicillin–streptomycin. Cells were seeded in 96-well plate with cells density 1.2–1.8 × 10,000 cells/well, in a volume of 100 µL complete growth medium + 100 µL of the tested compound per well and the plate was incubated for 24 h before the MTT assay. […] IC50 was calculated according to the equation of Boltzmann sigmoidal concentration-response curve using Graph Pad Prism 5.

EGFR = target: T1, EGFR (Homo sapiens, UniProt P00533); assay: In vitro enzymatic activity assay, EGFR kinase kit; type: biochemical; conditions: for % Inhibition of EGFR: concentration not given; for IC50: mean ± SE of three independent experiments
T1 construct: purchased Invitrogen PV3872
Method: (§1) EGFR and HER2 kinase kits were purchased from Invitrogen. […] ATP solution and a kinase/peptide mixture were prepared. The plate was incubated for 1 h at room temperature. About […] of the developing solution was added to each well. The plate was incubated for 1 h and then read by ELISA Reader (PerkinElmer, USA). Every experiment was repeated three times. Data represented as means ± SE from three independent experiments. Curve fitting was performed using Graph Pad Prism 5.

MDA-MB-231 cell line = assay: Cell cycle distribution analysis (propidium iodide, DNA cytometer); type: cell-based, human; conditions: MDA-MB-231 cells treated at IC50; for %Apoptosis: PreG1, control 0.97; for %G2-M: control 6.44; for %S: control 23.04; for %G0-G1: control 69.55
Method: Control cells with known DNA content (peripheral blood mononuclear cells) were used as a reference point for determining the DNA index for the test samples. The cells were stained with propidium iodide stain following the procedure provided by the kit then incubated at room temperature for 5 min in the dark and run on the DNA cytometer. Cell cycle distribution was calculated using […] software (Becton Dickinson Immunocytometry Systems, San Jose, CA, USA).

caspase-3 = assay: Active caspase-3 level immunoassay; type: cell-based, human; conditions: for Caspase 3: level of active caspase-3, control 53.2
Method: Cover and incubate for 2 h at room temperature. […] Incubate for 1 h then add 100 µL anti-rabbit IgG HRP working solution to each well and incubate for 30 min. The absorbance of each well was measured at 450 nm.

[2] = MTT cytotoxicity against normal breast cells; type: cell-based; conditions: human, 184A1 normal breast cells; MTT assay
Method: MDA-MB-231 breast cancer cells and 184A1 normal breast cells of American Type Culture Collection were obtained from VACSERA, Egypt. Cells were cultured using Dulbecco’s Modified Eagle’s Medium (Invitrogen/Life Technologies) supplemented with 10% FBS (Hyclone), 10 µg/mL of insulin, and 1% penicillin–streptomycin. Cells were seeded in 96-well plate with cells density 1.2–1.8 × 10,000 cells/well, in a volume of 100 µL complete growth medium + 100 µL of the tested compound per well and the plate was incubated for 24 h before the MTT assay. The cell layer was rinsed with 0.25% (w/v) trypsin, 0.53 mM EDTA solution, incubated for 2 h, then the absorbance was measured at a wavelength of 570 nm[30]. IC50 was calculated according to the equation of Boltzmann sigmoidal concentration-response curve using Graph Pad Prism 5.

HER2 = target: T2, HER2 (Homo sapiens, UniProt P04626); assay: In vitro enzymatic activity assay, HER2 kinase kit; type: biochemical; conditions: mean ± SE of three independent experiments
T2 construct: purchased Invitrogen PV3366
Method: as §1

MDA-MB-231 cells = assay: Radiosensitizing activity (MTT with 8 Gy gamma irradiation); type: cell-based; conditions: Homo sapiens, light or radiation study
Method: Irradiation was performed at the National Center for Radiation Research and Technology (NCRRT), Egyptian Atomic Energy Authority (EAEA), using gamma cell-40 (^137Cs) source. Compound 10 was selected to be re-evaluated for the in vitro antiproliferative activity in combination with γ-irradiation using MTT assay. Cells were incubated with compound 10 in molar concentrations of 0.01, 0.1, 1.0, and 10 µM. After 2 h, cells were subjected to a single dose of 8 Gy of γ-radiation at a dose rate of 0.758 rad/s for 17.73 min, and then the anti-proliferative activity was measured 48 h after irradiation. The IC50 of the tested compounds was calculated after irradiation.

Bcl2 = Bcl2 expression level; type: cell-based, human; conditions: MDA-MB-231 cells, compared to the control cells
Bax = Bax expression level; type: cell-based, human; conditions: MDA-MB-231 cells, compared to the control cells

T2 sequence (P04626 23-1255): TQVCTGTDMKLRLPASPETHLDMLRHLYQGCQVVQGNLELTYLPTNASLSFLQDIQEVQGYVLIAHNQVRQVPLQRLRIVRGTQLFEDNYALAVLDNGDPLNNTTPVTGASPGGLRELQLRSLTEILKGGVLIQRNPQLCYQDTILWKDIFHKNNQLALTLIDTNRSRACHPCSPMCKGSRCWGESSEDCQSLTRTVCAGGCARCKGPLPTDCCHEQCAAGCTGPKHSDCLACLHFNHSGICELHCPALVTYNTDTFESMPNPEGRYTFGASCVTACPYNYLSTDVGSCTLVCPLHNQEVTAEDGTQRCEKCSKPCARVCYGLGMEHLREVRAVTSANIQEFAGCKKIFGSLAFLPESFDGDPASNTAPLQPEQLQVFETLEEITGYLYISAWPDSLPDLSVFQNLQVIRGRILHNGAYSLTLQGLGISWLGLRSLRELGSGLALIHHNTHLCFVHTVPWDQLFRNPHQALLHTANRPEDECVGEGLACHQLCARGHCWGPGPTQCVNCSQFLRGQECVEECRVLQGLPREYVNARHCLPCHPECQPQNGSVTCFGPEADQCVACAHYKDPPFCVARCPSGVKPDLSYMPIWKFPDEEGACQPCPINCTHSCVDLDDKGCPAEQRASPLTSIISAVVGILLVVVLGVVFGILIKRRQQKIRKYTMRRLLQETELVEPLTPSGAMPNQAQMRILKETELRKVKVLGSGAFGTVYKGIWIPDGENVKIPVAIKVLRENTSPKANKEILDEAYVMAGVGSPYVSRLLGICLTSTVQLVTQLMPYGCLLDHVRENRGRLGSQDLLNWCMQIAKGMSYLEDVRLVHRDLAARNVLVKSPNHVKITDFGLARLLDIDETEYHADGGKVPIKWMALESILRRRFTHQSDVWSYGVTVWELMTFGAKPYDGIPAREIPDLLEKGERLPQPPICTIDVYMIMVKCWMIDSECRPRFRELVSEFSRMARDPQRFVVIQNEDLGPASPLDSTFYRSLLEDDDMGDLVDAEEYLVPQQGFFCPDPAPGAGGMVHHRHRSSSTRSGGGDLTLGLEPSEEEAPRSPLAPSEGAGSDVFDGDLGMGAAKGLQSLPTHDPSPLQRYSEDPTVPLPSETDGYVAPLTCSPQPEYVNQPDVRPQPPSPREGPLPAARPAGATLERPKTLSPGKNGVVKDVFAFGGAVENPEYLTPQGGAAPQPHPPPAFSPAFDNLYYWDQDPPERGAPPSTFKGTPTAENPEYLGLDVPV
T1 sequence (P00533 25-1210): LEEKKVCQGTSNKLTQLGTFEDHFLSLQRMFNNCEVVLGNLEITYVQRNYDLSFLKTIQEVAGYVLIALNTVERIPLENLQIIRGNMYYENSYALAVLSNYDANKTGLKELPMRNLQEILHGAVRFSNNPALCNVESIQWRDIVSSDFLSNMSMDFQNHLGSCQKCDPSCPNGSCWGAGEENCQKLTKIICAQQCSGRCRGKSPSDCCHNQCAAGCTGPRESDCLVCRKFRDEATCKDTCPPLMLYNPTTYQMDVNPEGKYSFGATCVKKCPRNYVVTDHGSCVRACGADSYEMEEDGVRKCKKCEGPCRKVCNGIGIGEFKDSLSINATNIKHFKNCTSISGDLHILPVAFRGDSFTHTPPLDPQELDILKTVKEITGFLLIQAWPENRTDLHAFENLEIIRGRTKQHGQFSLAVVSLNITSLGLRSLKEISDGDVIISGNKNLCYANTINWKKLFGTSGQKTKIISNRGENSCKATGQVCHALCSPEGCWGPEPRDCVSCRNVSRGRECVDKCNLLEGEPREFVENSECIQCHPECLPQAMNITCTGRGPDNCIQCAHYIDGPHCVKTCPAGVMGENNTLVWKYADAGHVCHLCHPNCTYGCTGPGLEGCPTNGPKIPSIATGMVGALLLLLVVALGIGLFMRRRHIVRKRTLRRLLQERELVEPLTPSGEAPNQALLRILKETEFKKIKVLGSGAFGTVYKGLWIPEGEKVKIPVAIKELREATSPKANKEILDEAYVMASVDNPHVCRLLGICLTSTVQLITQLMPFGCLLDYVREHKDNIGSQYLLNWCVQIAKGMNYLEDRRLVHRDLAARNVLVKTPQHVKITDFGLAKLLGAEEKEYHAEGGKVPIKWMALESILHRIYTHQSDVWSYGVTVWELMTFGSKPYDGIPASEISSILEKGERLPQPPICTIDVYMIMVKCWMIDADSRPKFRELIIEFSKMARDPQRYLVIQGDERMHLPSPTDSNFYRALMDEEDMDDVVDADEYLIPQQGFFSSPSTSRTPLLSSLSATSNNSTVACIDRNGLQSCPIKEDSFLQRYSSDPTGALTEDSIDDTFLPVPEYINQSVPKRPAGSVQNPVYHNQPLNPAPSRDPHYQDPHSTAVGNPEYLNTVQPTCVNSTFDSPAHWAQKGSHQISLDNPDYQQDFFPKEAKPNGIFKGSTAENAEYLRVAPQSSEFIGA

SMILES | melting point [°C] | % Inhibition of EGFR (EGFR) [%] | IC50 (HER2) [µM] | IC50 (EGFR) [µM] | IC50 [1] [nM] | other results
Cc1cc(NC(=O)CSc2nc3cc4ccccc4cc3c(=O)n2-c2ccc(S(N)(=O)=O)cc2)no1 [Compound 5, N-(5-Methylisoxazol-3-yl)-2-[(4-oxo-3–(4-sulfamoylphenyl)-3,4-dihydrobenzo[g]quinazolin-2-yl)thio]acetamide] | 292.4 | 42.00 |  |  | 2470 ± 80 | 
C#Cc1cccc(Nc2ncnc3cc(OCCOC)c(OCCOC)cc23)c1 [Erlotinib, N-(3-ethynylphenyl)-6,7-bis(2-methoxyethoxy)quinazolin-4-amine, reference compound] |  |  |  |  |  | %Apoptosis (MDA-MB-231 cell line): 17.33%; %G2-M (MDA-MB-231 cell line): 24.81%; %S (MDA-MB-231 cell line): 16.31%; %G0-G1 (MDA-MB-231 cell line): 41.55%; Caspase 3 (caspase-3): 480.1 pg/mL; IC50 at 24 h [2]: 102 ± 3.55 µM
Cc1ccc(NC(=O)CSc2nc3cc4ccccc4cc3c(=O)n2-c2ccc(S(N)(=O)=O)cc2)cc1C [Compound 10, N-(3,4-Dimethylphenyl)-2-[(4-oxo-3-(4-sulfamoylphenyl)-3,4-dihydrobenzo[g]quinazolin-2-yl)thio]acetamide] | 232.8 |  | 5.4 ± 0.12 | 3.9 ± 0.03 | 310 ± 10 | %Apoptosis (MDA-MB-231 cell line): 14.84%; %G2-M (MDA-MB-231 cell line): 17.52%; %S (MDA-MB-231 cell line): 18.28%; %G0-G1 (MDA-MB-231 cell line): 49.36%; IC50 (MDA-MB-231 cells; no irradiation, read-out: IC50 before Irradiation): 310 ± 10 nM; IC50 (MDA-MB-231 cells; single dose of 8 Gy γ-radiation, measured 48 h after irradiation, read-out: IC50 after Irradiation): 220 ± 30 nM; Bcl2 (Folds) (Bcl2): 0.14 Folds and 0.1379 Folds; Caspase 3 Folds (caspase-3; increase compared to the control cells): 10 Folds and 10.25 Folds; Caspase 3 (caspase-3): 545.7 pg/mL; Bax (Folds) (Bax): 9 Folds and 9.372 Folds; IC50 at 24 h [2]: 84.5 ± 0.72 µM
Cc1ccc(C)c(NC(=O)CSc2nc3cc4ccccc4cc3c(=O)n2-c2ccc(S(N)(=O)=O)cc2)c1 [Compound 11, N-(2,5-Dimethylphenyl)-2-[(4-oxo-3-(4-sulfamoylphenyl)-3,4-dihydrobenzo[g]quinazolin-2-yl)thio]acetamide] | 279.3 |  | 31.31 ± 0.31 | 2.55 ± 0.17 | 280 ± 10 | 
NS(=O)(=O)c1ccc(-n2c(SCC(=O)Nc3nnc(C(F)(F)F)s3)nc3cc4ccccc4cc3c2=O)cc1 [Compound 9, 2-[(4-Oxo-3-(4-sulfamoylphenyl)-3,4-dihydrobenzo[g]quinazolin-2-yl)thio]-N-(5-(trifluoromethyl)-1,3,4-thiadiazol-2-yl)acetamide] | 257 | 52.49 |  |  | 2190 ± 50 | 
CCOc1ccc2nc(NC(=O)CSc3nc4cc5ccccc5cc4c(=O)n3-c3ccc(S(N)(=O)=O)cc3)sc2c1 [Compound 7, N-(6-Ethoxybenzo[d]thiazol-2-yl)-2-[(4-oxo-3-(4-sulfamoylphenyl)-3,4-dihydrobenzo[g]quinazolin-2-yl)thio]acetamide] | 255.9 | 25.98 |  |  | 26500 ± 2140 | 
NS(=O)(=O)c1ccc(-n2c(SCC(=O)Nc3nc4ccc([N+](=O)[O-])cc4s3)nc3cc4ccccc4cc3c2=O)cc1 [Compound 8, N-(6-Nitrobenzo[d]thiazol-2-yl)-2-[(4-oxo-3-(4-sulfamoylphenyl)-3,4-dihydrobenzo[g]quinazolin-2-yl)thio]acetamide] | 278.3 | 54.61 |  |  | 2910 ± 30 | 
NS(=O)(=O)c1ccc(-n2c(SCC(=O)Nc3nccs3)nc3cc4ccccc4cc3c2=O)cc1 [Compound 6, 2-[(4-Oxo-3-(4-sulfamoylphenyl)-3,4-dihydrobenzo[g]quinazolin-2-yl)thio]-N-(thiazol-2-yl)acetamide] | 304 | 18.13 |  |  | 23200 ± 1880 | 
Cc1cccc(C)c1NC(=O)CSc1nc2cc3ccccc3cc2c(=O)n1-c1ccc(S(N)(=O)=O)cc1 [Compound 12, N-(2,6-Dimethylphenyl)-2-[(4-oxo-3-(4-sulfamoylphenyl)-3,4-dihydrobenzo[g]quinazolin-2-yl)thio]acetamide] | 300.5 | 41.86 |  |  | 2190 ± 90 | 
Cc1cc([N+](=O)[O-])ccc1NC(=O)CSc1nc2cc3ccccc3cc2c(=O)n1-c1ccc(S(N)(=O)=O)cc1 [Compound 13, N-(2-Methyl-4-nitrophenyl)-2-[(4-oxo-3-(4-sulfamoylphenyl)-3,4-dihydrobenzo[g]quinazolin-2-yl)thio]acetamide] | 293.8 |  | 13.01 ± 0.09 | 10.2 ± 0.1 | 400 ± 10 | 

The next lines start with results.

melting point [°C] | % Inhibition of EGFR (EGFR) [%] | IC50 (HER2) [µM] | IC50 (EGFR) [µM] | SMILES | IC50 [1] [nM] | other results
241.6 | 8.71 |  |  | NS(=O)(=O)c1ccc(-n2c(SCC(=O)Nc3cccc4ccccc34)nc3cc4ccccc4cc3c2=O)cc1 [Compound 17, N-(Naphthalene-1-yl)-2-[(4-oxo-3-(4-sulfamoylphenyl)-3,4-dihydrobenzo[g]quinazolin-2-yl)thio]acetamide] | 161000 ± 4690 | 
280 |  | 26.03 ± 0.22 | 4.11 ± 0.02 | NS(=O)(=O)c1ccc(-n2c(SCC(=O)Nc3c[nH]c(=O)[nH]c3=O)nc3cc4ccccc4cc3c2=O)cc1 [Compound 14, N-(2,4-Dioxo-1,2,3,4-tetrahydropyrimidin-5-yl)-2-[(4-oxo-3-(4-sulfamoylphenyl)-3,4-dihydrobenzo[g]quinazolin-2-yl)thio]acetamide] | 370 ± 10 | 
307.7 | 21.45 |  |  | Cn1c(NC(=O)CSc2nc3cc4ccccc4cc3c(=O)n2-c2ccc(S(N)(=O)=O)cc2)cc(=O)n(C)c1=O [Compound 15, N-(1,3-Dimethyl-2,6-dioxo-1,2,3,6-tetrahydropyrimidin-4-yl)-2-[(4-oxo-3-(4-sulfamoylphenyl)-3,4-dihydrobenzo[g]quinazolin-2-yl)thio]acetamide] | 21800 ± 1630 | 
256.7 |  | 3.2 ± 0.04 | 9.66 ± 0.08 | NS(=O)(=O)c1ccc(-n2c(SCC(=O)Nc3ccc4c(c3)C(=O)c3ccccc3C4=O)nc3cc4ccccc4cc3c2=O)cc1 [Compound 18, N-(9,10-Dioxo-9,10-dihydroanthracen-2-yl)-2-[(4-oxo-3-(4-sulfamoylphenyl)-3,4-dihydrobenzo[g]quinazolin-2-yl)thio]acetamide] | 260 ± 10 | 
205.7 | 59.66 |  |  | NS(=O)(=O)c1ccc(-n2c(SCC(=O)Nc3cnccn3)nc3cc4ccccc4cc3c2=O)cc1 [Compound 16, 2-[(4-Oxo-3-(4-sulfamoylphenyl)-3,4-dihydrobenzo[g]quinazolin-2-yl)thio]-N-(pyrazin-2-yl)acetamide] | 320 ± 10 | 
